Test results taken from US8048916B2, “Ester compound and use thereof” (Sumitomo Chemical Company, Limited, priority 2007, dated 2011).

What follows are molecules tested on houseflies (assay: Test Example 2: knock-down test on houseflies in a 70 cm cubic chamber (KT50)). Settings: 0.00625% (w/v), 0.7 ml sprayed into 70 cm cubic chamber, knock-down counted until 10 minutes.
Type: in vivo, housefly
Protocol: Each of the compositions of the compounds (1) and (2) of the present invention obtained by Formulation Example 7 was diluted with mixed liquid of dichloromethane/deodorized kerosine=1/9 (w/w) so that the effective ingredient concentration became 0.00625% (w/v) to prepare a test solution.
Ten houseflies were released in a cubic chamber having a side of 70 cm to spray 0.7 ml of the above-mentioned oil-based preparation into the chamber through a small window on the side face of the chamber at a spray pressure of 0.9 kg/cm^2 with a spray gun. Then, the number of houseflies knocked down was counted with time until 10 minutes later (two repetitions each). The effect was evaluated with 4 grades of ⊙ to × as described below by means of a KT50 value calculated from the obtained results.
As a control test, the similar tests were performed by using as comparative reference compounds 2,3,5,6-tetrafluoro-4-methoxymethylbenzyl (1R,3S)-3-((E)-2-cyano-2-fluorovinyl)-2,2-dimethylcyclopropanecarboxylate

SMILES | Efficacy (grade by KT50 value)
COCc1c(F)c(F)c(COC(=O)[C@@H]2C(/C=C(\Cl)C#N)C2(C)C)c(F)c1F (stereo in doubt) [compound (1), 2,3,5,6-tetrafluoro-4-methoxymethylbenzyl (1R,3S)-3-((Z)-2-chloro-2-cyanovinyl)-2,2-dimethylcyclopropanecarboxylate] | ◯ (KT50 value is 2 minutes or more and less than 3 minutes)
COCc1c(F)c(F)c(COC(=O)[C@@H]2C(/C=C(/Cl)C#N)C2(C)C)c(F)c1F (stereo in doubt) [compound (2), 2,3,5,6-tetrafluoro-4-methoxymethylbenzyl (1R,3S)-3-((E)-2-chloro-2-cyanovinyl)-2,2-dimethylcyclopropanecarboxylate] | ⊙ (KT50 value is less than 2 minutes)
COCc1c(F)c(F)c(COC(=O)[C@@H]2C(C=C(F)C#N)C2(C)C)c(F)c1F (stereo in doubt) [control compound (A), 2,3,5,6-tetrafluoro-4-methoxymethylbenzyl (1R,3S)-3-((E)-2-cyano-2-fluorovinyl)-2,2-dimethylcyclopropanecarboxylate] | X (KT50 value is 4 minutes or more)
COCc1c(F)c(F)c(COC(=O)[C@@H]2C(C=C(F)C#N)C2(C)C)c(F)c1F (stereo in doubt) [control compound (B), 2,3,5,6-tetrafluoro-4-methoxymethylbenzyl (1R,3S)-3-((Z)-2-cyano-2-fluorovinyl)-2,2-dimethylcyclopropanecarboxylate] | Δ (KT50 value is 3 minutes or more and less than 4 minutes)
